# Assay results as given in patent US20240409585A1, “MACROCYCLIC IMMUNOMODULATORS” (priority 2021, published 2024).
# Numbered stars: 1 amine (or outer) side, 2 acyl side, 3 side chain; on linkers, the order of the positions; unused ones are H or OH. Bridge positions count the residues as written; N and C are the ends. Square brackets hold non-standard residues; d marks the D form. Peptide text beside a SMILES is read from it. * marks the point of attachment. ξ: configuration not given here. Gly(1-amidinopiperidin-4-yl) = N=C(N)N1CCC([C@H](N)C(=O)O)CC1; X22 = NC(=O)c1cccc(-c2ccc(C[C@H](N[*:1])C(=O)[*:2])cc2)c1; Phe(4-COOH) = N[C@@H](Cc1ccc(C(=O)O)cc1)C(=O)O; Bip = N[C@@H](Cc1ccc(-c2ccccc2)cc1)C(=O)O; Phe(3-CN) = N#Cc1cccc(C[C@H](N)C(=O)O)c1; Phe(3-Me) = Cc1cccc(C[C@H](N)C(=O)O)c1; dBta = N[C@H](Cc1csc2ccccc12)C(=O)O; Val(3-OH) = CC(C)(O)[C@H](N)C(=O)O; Ala(cPr) = N[C@@H](CC1CC1)C(=O)O; 3Pal = N[C@@H](Cc1cccnc1)C(=O)O; 3Thi = N[C@@H](Cc1ccsc1)C(=O)O; Cha = N[C@@H](CC1CCCCC1)C(=O)O; Ile(3ξ) = CCC(C)[C@H](N)C(=O)O; Thr(3ξ) = CC(O)[C@H](N)C(=O)O; NMeNva = CCC[C@H](NC)C(=O)O; Carboxymethyl = O=C(O)C*; NMeA = CN[C@@H](C)C(=O)O; Pra = C#CC[C@H](N)C(=O)O; Dab = NCC[C@H](N)C(=O)O; Abu = CC[C@H](N)C(=O)O; Dap = NC[C@H](N)C(=O)O; ξC = NC(CS)C(=O)O
# Biological target: T1, PE-labeled human PD-L1-Ig binding to Jurkat cell line over-expressing human PD-1 (Jurkat-PD-1) (Homo sapiens, UniProt Q15116)
# T1 construct: expressed in transfected cells; host or cells: Jurkat
# Test: Jurkat-PD-1 Cell Binding High-Content Screening Assay (CBA): Method 1
# Conditions: Jurkat-hPD-1 cells, PE-labeled PD-L1-Ig 20 nM final; read-out: Jurkat HPDL1 PD1 IC50 (uM) (Method 1)
# T1 sequence (Q15116 25-288): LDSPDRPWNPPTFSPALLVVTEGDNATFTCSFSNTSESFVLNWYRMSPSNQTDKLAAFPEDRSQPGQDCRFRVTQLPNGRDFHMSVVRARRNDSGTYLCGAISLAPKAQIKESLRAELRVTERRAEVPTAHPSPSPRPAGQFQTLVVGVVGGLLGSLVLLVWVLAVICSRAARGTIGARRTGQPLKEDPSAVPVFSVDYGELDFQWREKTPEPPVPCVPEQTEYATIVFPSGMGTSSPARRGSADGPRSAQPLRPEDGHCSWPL
row,Compound,IC50
1,CCC(C)[C@@H]1NC(=O)[C@H](Cc2ccc(-c3ccccc3)cc2)NC(=O)[C@H](C(C)C)NC(=O)[C@H](Cc2c[nH]c3ccccc23)NC(=O)[C@H](CC(=O)O)NC(=O)[C@H](Cc2ccc(O)cc2)NC(=O)[C@H](C2CCN(C(=N)N)CC2)NC(=O)CSC[C@@H](C(=O)N[C@@H](C)C(N)=O)NC(=O)[C@H](C(C)O)NC(=O)[C@H](C(C)C)NC(=O)[C@H](CC2CCCCC2)NC(=O)[C@H](CCN)NC(=O)[C@@H](CC(C)C)NC(=O)[C@H](C)N(C)C1=O (stereo partly drawn) [Compound 2054] ({CH2CO}-[Gly(1-amidinopiperidin-4-yl)]YDWV[Bip][Ile(3ξ)][NMeA][dL][Dab][Cha]V[Thr(3ξ)]CA-NH2; thioether N-14),0.02 µM
2,CC[C@H](C)[C@@H]1NC(=O)[C@H](Cc2ccc(-c3ccccc3)cc2)NC(=O)[C@H](C(C)C)NC(=O)[C@H](Cc2c[nH]c3ccccc23)NC(=O)[C@H](CC(=O)O)NC(=O)[C@H](Cc2ccc(O)cc2)NC(=O)[C@H](Cc2ccc(OCC(=O)O)cc2)NC(=O)CSC[C@@H](C(=O)N[C@@H](C)C(N)=O)NC(=O)[C@H]([C@@H](C)O)NC(=O)[C@H](C(C)C)NC(=O)[C@H](CC(C)C)NC(=O)[C@H](CCCNC(=N)N)NC(=O)[C@@H](CC(C)C)NC(=O)[C@H](C)N(C)C1=O [Compound 1489] ({CH2CO}-Y(Carboxymethyl)YDWV[Bip]I[NMeA][dL]RLVTCA-NH2; thioether N-14),0.04 µM
3,C#CC[C@H](NC(=O)CNC(=O)[C@@H]1CSCC(=O)N[C@@H](Cc2ccc(OCC(=O)O)cc2)C(=O)N[C@@H](Cc2ccc(C(=O)O)cc2)C(=O)N[C@@H](CC(=O)O)C(=O)N[C@@H](Cc2c[nH]c3ccccc23)C(=O)N[C@@H](CC(C)C)C(=O)N[C@@H](Cc2ccc(-c3ccccc3)cc2)C(=O)N[C@@H](C(C)C)C(=O)N(C)[C@@H](C)C(=O)N[C@H](CC(C)C)C(=O)N[C@@H](CCN)C(=O)N[C@@H](CC2CCCCC2)C(=O)N[C@@H](C(C)C)C(=O)N[C@@H](CO)C(=O)N1)C(N)=O [Compound 1932] ({CH2CO}-Y(Carboxymethyl)[Phe(4-COOH)]DWL[Bip]V[NMeA][dL][Dab][Cha]VSCG[Pra]-NH2; thioether N-14),0.02 µM
4,CC[C@@H]1NC(=O)[C@H](CCCNC(=N)N)NC(=O)[C@@H](CC(C)C)NC(=O)[C@H](C)N(C)C(=O)[C@H](CCCNC(=N)N)NC(=O)[C@H](Cc2ccc(-c3ccccc3)cc2)NC(=O)[C@H](C(C)C)NC(=O)[C@H](Cc2c[nH]c3ccccc23)NC(=O)[C@H](CC(=O)O)NC(=O)[C@H](Cc2ccc(O)cc2)NC(=O)[C@H](Cc2ccccc2)NC(=O)CSC[C@@H](C(=O)N[C@@H](C)C(N)=O)NC(=O)[C@H]([C@@H](C)O)NC(=O)[C@H](C(C)C)NC1=O [Compound 1114] ({CH2CO}-FYDWV[Bip]R[NMeA][dL]R[Abu]VTCA-NH2; thioether N-14),0.93 µM
5,CCC[C@H]1C(=O)N[C@H](CC(C)C)C(=O)N[C@@H](CCN)C(=O)N[C@@H](CC(C)C)C(=O)N[C@@H](C(C)C)C(=O)N[C@@H]([C@@H](C)O)C(=O)N[C@H](C(=O)N[C@@H](C)C(N)=O)CSCC(=O)N[C@@H](CC(N)=O)C(=O)N[C@@H](Cc2ccc(O)cc2)C(=O)N[C@@H](CC(=O)O)C(=O)N[C@@H](Cc2c[nH]c3ccccc23)C(=O)N[C@@H](C(C)C)C(=O)N[C@@H](Cc2ccc(-c3ccccc3)cc2)C(=O)N[C@@H](C(C)C)C(=O)N1C [Compound 1369] ({CH2CO}-NYDWV[Bip]V[NMeNva][dL][Dab]LVTCA-NH2; thioether N-14),0.03 µM
6,CCC(C)[C@@H]1NC(=O)[C@H](Cc2ccc(-c3ccccc3)cc2)NC(=O)[C@H](C(C)C)NC(=O)[C@H](Cc2c[nH]c3ccccc23)NC(=O)[C@H](CC(=O)O)NC(=O)[C@H](Cc2ccc(C(=O)O)cc2)NC(=O)[C@H](Cc2ccc(OCC(=O)O)cc2)NC(=O)CSC[C@@H](C(=O)N[C@@H](CCC(=O)O)C(=O)N[C@H](C(N)=O)C(=O)O)NC(=O)[C@H](CO)NC(=O)[C@H](C(C)C)NC(=O)[C@H](CC2CCCCC2)NC(=O)[C@H](CC(N)=O)NC(=O)[C@@H](CC(C)C)NC(=O)[C@H](C)N(C)C1=O (stereo partly drawn) [Compound 2008],0.04 µM
7,Cc1cccc(C[C@@H]2NC(=O)[C@H](CC(=O)O)NC(=O)[C@H](Cc3ccc(OCC(=O)O)cc3)NC(=O)[C@H](CN)NC(=O)CSCC(C(N)=O)NC(=O)[C@H](CO)NC(=O)[C@H](C(C)C)NC(=O)[C@H](CC(C)C)NC(=O)[C@H](CC(N)=O)NC(=O)[C@@H](CC(C)C)NC(=O)[C@H](C)N(C)C(=O)[C@H](C(C)C)NC(=O)[C@H](Cc3ccc(-c4ccccc4)cc3)NC(=O)[C@H](CC(C)C)NC2=O)c1 (stereo partly drawn) [Compound 1597] ({CH2CO}-[Dap]Y(Carboxymethyl)D[Phe(3-Me)]L[Bip]V[NMeA][dL]NLVS[ξC]-NH2; thioether N-14),0.05 µM
8,CC(C)C[C@@H]1NC(=O)[C@H](Cc2c[nH]c3ccccc23)NC(=O)[C@H](CC(=O)O)NC(=O)[C@H](Cc2ccc(O)cc2)NC(=O)[C@H](Cc2ccccc2)NC(=O)CSC[C@@H](C(=O)N[C@@H](C)C(N)=O)NC(=O)[C@H](CO)NC(=O)[C@H](C(C)C)NC(=O)[C@H](CC(C)C)NC(=O)[C@H](CC(=O)O)NC(=O)[C@@H](C)NC(=O)[C@H](C)N(C)C(=O)[C@H](C(C)C)NC(=O)[C@H](Cc2ccc(-c3cccc(C(N)=O)c3)cc2)NC1=O [Compound 1830] ({CH2CO}-FYDWL[X22]V[NMeA][dA]DLVSCA-NH2; thioether N-14),0.9 µM
9,CC(C)C[C@@H]1NC(=O)[C@H](Cc2c[nH]c3ccccc23)NC(=O)[C@H](CC(=O)O)NC(=O)[C@H](Cc2ccc(OCC(=O)O)cc2)NC(=O)[C@H](Cc2ccccc2)NC(=O)CSC[C@@H](C(=O)N[C@@H](C)C(N)=O)NC(=O)[C@H](CO)NC(=O)[C@H](C(C)C)NC(=O)[C@H](CC(C)C)NC(=O)[C@H](CC(N)=O)NC(=O)[C@@H](CC(C)C)NC(=O)[C@H](C)N(C)C(=O)[C@H](CC(=O)O)NC(=O)[C@H](Cc2ccc(-c3ccccc3)cc2)NC1=O [Compound 2029] ({CH2CO}-FY(Carboxymethyl)DWL[Bip]D[NMeA][dL]NLVSCA-NH2; thioether N-14),0.04 µM
10,Cc1cccc(C[C@@H]2NC(=O)[C@H](CC(=O)O)NC(=O)[C@H](Cc3ccc(C(=O)O)cc3)NC(=O)[C@H](CN)NC(=O)CSC[C@@H](C(=O)N[C@@H](C)C(N)=O)NC(=O)[C@H]([C@@H](C)O)NC(=O)[C@H](C(C)C)NC(=O)[C@H](CC(C)C)NC(=O)[C@H](CCN)NC(=O)[C@@H](CC(C)C)NC(=O)[C@H](C)N(C)C(=O)[C@H](CCCNC(=N)N)NC(=O)[C@H](Cc3ccc(-c4ccccc4)cc3)NC(=O)[C@H](C(C)C)NC2=O)c1 [Compound 1457] ({CH2CO}-[Dap][Phe(4-COOH)]D[Phe(3-Me)]V[Bip]R[NMeA][dL][Dab]LVTCA-NH2; thioether N-14),0.01 µM
11,CC(C)C[C@H]1NC(=O)[C@H](C)N(C)C(=O)[C@H](Cc2ccc(OCC(=O)O)cc2)NC(=O)[C@H](Cc2ccc(-c3ccccc3)cc2)NC(=O)[C@H](Cc2ccc(C(=O)O)cc2)NC(=O)[C@H](Cc2c[nH]c3ccccc23)NC(=O)[C@H](CC(=O)O)NC(=O)[C@H](Cc2ccc(OCC(=O)O)cc2)NC(=O)[C@H](Cc2ccsc2)NC(=O)CSC[C@@H](C(=O)N[C@@H](CCN)C(N)=O)NC(=O)[C@H](CO)NC(=O)[C@H](C(C)(C)O)NC(=O)[C@H](CC2CCCCC2)NC(=O)[C@H](CC(N)=O)NC1=O [Compound 2131] ({CH2CO}-[3Thi]Y(Carboxymethyl)DW[Phe(4-COOH)][Bip]Y(Carboxymethyl)[NMeA][dL]N[Cha][Val(3-OH)]SC[Dab]-NH2; thioether N-14),0.07 µM
12,CC[C@H](C)[C@@H]1NC(=O)[C@H](Cc2ccc(-c3ccccc3)cc2)NC(=O)[C@H](C(C)C)NC(=O)[C@H](Cc2c[nH]c3ccccc23)NC(=O)[C@H](CC(=O)O)NC(=O)[C@H](Cc2cccc(C#N)c2)NC(=O)[C@H](CC(N)=O)NC(=O)CSC[C@@H](C(=O)N[C@@H](C)C(N)=O)NC(=O)[C@H]([C@@H](C)O)NC(=O)[C@H](C(C)C)NC(=O)[C@H](CC(C)C)NC(=O)[C@H](CCN)NC(=O)[C@@H](CC(C)C)NC(=O)[C@H](C)N(C)C1=O [Compound 1397] ({CH2CO}-N[Phe(3-CN)]DWV[Bip]I[NMeA][dL][Dab]LVTCA-NH2; thioether N-14),0.02 µM
13,CC(C)C[C@@H]1NC(=O)[C@H](CCCNC(=N)N)NC(=O)[C@@H](Cc2csc3ccccc23)NC(=O)[C@H](C)N(C)C(=O)[C@H](CCCNC(=N)N)NC(=O)[C@H](Cc2ccc(-c3ccccc3)cc2)NC(=O)[C@H](C(C)C)NC(=O)[C@H](Cc2c[nH]c3ccccc23)NC(=O)[C@H](CC(=O)O)NC(=O)[C@H](Cc2ccc(O)cc2)NC(=O)[C@H](Cc2ccccc2)NC(=O)CSC[C@@H](C(=O)N[C@@H](C)C(N)=O)NC(=O)[C@H]([C@@H](C)O)NC(=O)[C@H](C(C)C)NC1=O [Compound 1180] ({CH2CO}-FYDWV[Bip]R[NMeA][dBta]RLVTCA-NH2; thioether N-14),0.51 µM
14,CC(C)C[C@@H]1NC(=O)[C@H](CCN)NC(=O)[C@@H](CC(C)C)NC(=O)[C@H](C)N(C)C(=O)[C@H](CCCNC(=N)N)NC(=O)[C@H](Cc2ccc(-c3ccccc3)cc2)NC(=O)[C@H](C(C)C)NC(=O)[C@H](Cc2c[nH]c3ccccc23)NC(=O)[C@H](CC(=O)O)NC(=O)[C@H](Cc2ccc(O)cc2)NC(=O)[C@H](Cc2cccnc2)NC(=O)CSC[C@@H](C(=O)N[C@@H](C)C(N)=O)NC(=O)[C@H]([C@@H](C)O)NC(=O)[C@H](C(C)C)NC1=O [Compound 1053] ({CH2CO}-[3Pal]YDWV[Bip]R[NMeA][dL][Dab]LVTCA-NH2; thioether N-14),0.12 µM
15,CC(C)C[C@H]1NC(=O)[C@H](C)N(C)C(=O)[C@H](CCCNC(=N)N)NC(=O)[C@H](Cc2ccc(-c3ccccc3)cc2)NC(=O)[C@H](C(C)C)NC(=O)[C@H](Cc2c[nH]c3ccccc23)NC(=O)[C@H](CC(=O)O)NC(=O)[C@H](Cc2ccc(O)cc2)NC(=O)[C@H](Cc2ccccc2)NC(=O)CSC[C@@H](C(=O)N[C@@H](C)C(N)=O)NC(=O)[C@H]([C@@H](C)O)NC(=O)[C@H](C(C)C)NC(=O)[C@H](CC2CC2)NC(=O)[C@H](CCCNC(=N)N)NC1=O [Compound 1111] ({CH2CO}-FYDWV[Bip]R[NMeA][dL]R[Ala(cPr)]VTCA-NH2; thioether N-14),0.07 µM
